These compounds were tested against aspartyl proteases, in particular, beta-secretase (assay: Ki of the compounds listed in Tables 1 and 2 (no method described)). Conditions: not given.
Format: biochemical

SMILES | Ki
Cc1ccc(S(=O)(=O)N(CC(C)C)C(CNCCNC(=O)CCc2ccccc2)C(=O)O)cc1 [Compound No. 206, (2R,2S)-2-[N-isobutyl-N-(4-methylbenzenesulfonyl)]-3-[2′-(N′-dihydrocinnamoyl)ethylamino]-propionic Acid] | > 300 nM

Same assay, conditions: Table 1, compounds of formula Ia, W is -(CH2)n-

SMILES | Ki
O=C(NCCCC[C@H](NS(=O)(=O)c1ccc([N+](=O)[O-])cc1)C(=O)O)OCC1c2ccccc2-c2ccccc21 [Compound No. 103, Nα-(4-nitrobenzenesulfonyl)-Nε-(9-fluorenylmethoxycarbonyl)-L-lysine] | 3300 nM
COc1ccc(S(=O)(=O)N[C@@H](CCCCNC(=O)OCC2c3ccccc3-c3ccccc32)C(=O)O)cc1 [Compound No. 104, Nα-(4-methoxylbenzenesulfonyl)-Nε-(9-fluorenylmethoxycarbonyl)-L-lysine] | 3160 nM
Nc1ccccc1S(=O)(=O)N[C@@H](CCCCNC(=O)OCC1c2ccccc2-c2ccccc21)C(=O)O [Compound No. 105, Nα-(2-aminobenzenesulfonyl)-Nε-(9-fluorenylmethoxycarbonyl)-L-lysine] | 16000 nM
Nc1ccc(S(=O)(=O)N[C@@H](CCCCNC(=O)OCC2c3ccccc3-c3ccccc32)C(=O)O)cc1 [Compound No. 106, Nα-(4-aminobenzenesulfonyl)-Nε-(9-fluorenylmethoxycarbonyl)-L-lysine] | 4490 nM
O=C(NCCCC[C@H](NS(=O)(=O)c1ccccc1[N+](=O)[O-])C(=O)O)OCC1c2ccccc2-c2ccccc21 [Compound No. 107, Nα-(2-nitrobenzenesulfonyl)-Nε-(9-fluorenylmethoxycarbonyl)-L-lysine] | 3970 nM
CC(C)CN([C@@H](CCCCNC(=O)C=Cc1cccc([N+](=O)[O-])c1)C(=O)O)S(=O)(=O)c1ccc([N+](=O)[O-])cc1 [Compound No. 108, Nα-isobutyl-Nα-(4-nitrobenzenesulfonyl)-Nε-(3-nitrocinnamoyl)-L-lysine] | > 300 nM
CC(C)CN(C(CCCCNC(=O)C=Cc1ccccc1[N+](=O)[O-])C(=O)O)S(=O)(=O)c1ccc([N+](=O)[O-])cc1 [Compound No. 109, Nα-isobutyl-Nα-(4-nitrobeiizenesulfonyl)-Nε-(2-nitrocinnamoyl)-L-lysine] | > 300 nM
CC(C)CN([C@@H](CCCCNC(=O)C=Cc1ccc([N+](=O)[O-])cc1)C(=O)O)S(=O)(=O)c1ccc([N+](=O)[O-])cc1 [Compound No. 111, Nα-isobutyl-Nα-(4-nitrobenzenesulfonyl)-Nε-(4-nitrocinnamoyl)-L-lysine] | 34.4 nM
COc1ccc(C=CC(=O)NCCCC[C@@H](C(=O)O)N(CC(C)C)S(=O)(=O)c2ccc([N+](=O)[O-])cc2)cc1 [Compound No. 113, Nα-isobutyl-Nα-(4-nitrobenzenesulfonyl)-Nε-(4-methoxycinnamoyl)-L-lysine] | > 300 nM
CC(C)CN([C@@H](CCCCNS(=O)(=O)Cc1ccccc1)C(=O)O)S(=O)(=O)c1ccc([N+](=O)[O-])cc1 [Compound No. 115, Nα-isobutyl-Nα-(4-nitrobenzenesulfonyl)-Nε-benzylsulfonyl-L-lysine] | > 300 nM
CC(C)CN([C@@H](CCCCNC(=O)CCc1cccc(N)c1)C(=O)O)S(=O)(=O)c1ccc(N)cc1 [Compound No. 118, Nα-isobutyl-Nα-(4-aminobenzenesulfonyl)-Nε-(3-aminodihydrocinnamoyl)-L-lysine] | 20.5 nM
COc1cccc(CCC(=O)NCCCC[C@@H](C(=O)O)N(CC(C)C)S(=O)(=O)c2ccc(N)cc2)c1OC [Compound No. 119, Nα-isobutyl-Nα-(4-aminobenzenesulfonyl)-Nε-(2,3-dimethoxydihydrocinnamoyl)-L-lysine] | 6.2 nM
COc1ccc(CCC(=O)NCCCC[C@@H](C(=O)O)N(CC(C)C)S(=O)(=O)c2ccc(N)cc2)cc1 [Compound No. 120, Nα-isobutyl-Nα-(4-aminobenzenesulfonyl)-Nε-(4-methoxydihydrocinnamoyl)-L-lysine] | 12.4 nM
CC(C)CN([C@@H](CCCCNC(=O)CCCc1ccccc1)C(=O)O)S(=O)(=O)c1ccc(N)cc1 [Compound No. 121, Nα-isobutyl-Nα-(4-aminobenzenesulfonyl)-Nε-(4-phenylbutanoyl)-L-lysine] | > 300 nM
CC(C)CN([C@@H](CCCCNC(=O)CCc1ccccc1N)C(=O)O)S(=O)(=O)c1ccc(N)cc1 [Compound No. 122, Nα-isobutyl-Nα-(4-aminobenzenesulfonyl)-Nε-(2-aminodihydrocinnamoyl)-L-lysine] | > 300 nM
COC(=O)[C@H](CCCCNC(=O)OCC1c2ccccc2-c2ccccc21)N(CC(C)C)S(=O)(=O)c1ccc(C)cc1 [Compound No. 123, Nα-isobutyl-Nα-(4-methylbenzenesulfonyl)-Nε-(9-fluorenylmethoxycarbonyl)-L-lysine Methyl Ester] | > 300 nM
Cc1ccc(S(=O)(=O)N(CC(C)C)[C@@H](CO)CCCCNC(=O)OCC2c3ccccc3-c3ccccc32)cc1 [Compound No. 124, (2R)-N-isobutyl-N-(4-methylbenzenesulfonylamino)-6-(9-fluorenylmethoxycarboxylamino)-1-hexanol] | 208 nM
Cc1ccc(S(=O)(=O)N(CC(C)C)C(CCCCNC(=O)OCC2c3ccccc3-c3ccccc32)C(N)=O)cc1 [Compound No. 125, (2R,2S)-N-isobutyl-N-(4-methylbenzenesulfonylamino)-6-(9-fluorenylmethoxycarboxylamino)-1-hexanamide] | 107 nM
Cc1ccc(S(=O)(=O)N(CC(C)C)[C@@H](CCCCNC(=O)CCc2ccc(O)cc2)C(=O)O)cc1 [Compound No. 126, Nα-isobutyl-Nα-(4-methylbenzenesulfonyl)-Nε-(4-hydroxydihydrocinnamoyl)-L-lysine] | > 300 nM
Cc1ccc(S(=O)(=O)N(CC(C)C)C(CCCCNC(=O)OCC2c3ccccc3-c3ccccc32)C(=O)NO)cc1 [Compound No. 141, (2R,2S)-N-isobutyl-N-(4-methylbenzenesulfonylamino)-6-(9-fluorenylmethoxycarboxylamino)-1-hydroxylhexamide] | 245 nM

SMILES | Ki
Cc1ccc(S(=O)(=O)NCCC[C@H](NC(=O)OCC2c3ccccc3-c3ccccc32)C(=O)O)cc1 [Compound No. 149, Nδ-(4-methylbenzenesulfonyl)-Nα-(9-fluorenylmethoxycarbonyl)-L-ornithine] | 10100 nM
CC(C)CN([C@@H](CCCCNC(=O)CSc1ccccc1)C(=O)O)S(=O)(=O)c1ccc([N+](=O)[O-])cc1 [Compound No. 154, Nα-isobutyl-Nα-(4-Tnitrobenzenesulfonyl)-Nε-phenylthioacetyl-L-lysine] | 10.2 nM
CC(C)CN([C@@H](CCCCNC(=O)CCc1ccc2c(c1)OCO2)C(=O)O)S(=O)(=O)c1ccc(N)cc1 [Compound No. 155, Nα-isobutyl-Nα-(4-aminobenzenesulfonyl)-Nε-(3,4-methylenedioxydihydrocinnamoyl)-L-lysine] | 15.7 nM
COc1cccc(CCC(=O)NCCCC[C@@H](C(=O)O)N(CC(C)C)S(=O)(=O)c2ccc(N)cc2)c1 [Compound No. 156, Nα-isobutyl-Nα-(4-aminobenzenesulfonyl)-Nε-(3-methoxydihydrocinnamoyl)-L-lysine] | 16.7 nM
COc1ccccc1CCC(=O)NCCCC[C@@H](C(=O)O)N(CC(C)C)S(=O)(=O)c1ccc(N)cc1 [Compound No. 157, Nα-isobutyl-Nα-(4-aminobenzenesulfonyl)-Nε-(2-methoxydihydrocinnamoyl)-L-lysine] | 18.9 nM
CC(C)CN([C@@H](CCCCNC(=O)CCc1ccccc1)C(=O)O)S(=O)(=O)c1ccc(N)cc1 [Compound No. 158, Nα-isobutyl-Nα-(4-aminobenzenesulfonyl)-Nε-dihydrocinnamoyl-L-lysine] | > 300 nM
CC(C)CN([C@@H](CCCCNC(=O)COc1ccccc1)C(=O)O)S(=O)(=O)c1ccc([N+](=O)[O-])cc1 [Compound No. 160, Nα-isobutyl-Nα-(4-nitrobenzenesulfonyl)-Nε-phenoxyacetyl-L-lysine] | 24.5 nM
COc1ccccc1/C=C/C(=O)NCCCC[C@@H](C(=O)O)N(CC(C)C)S(=O)(=O)c1ccc([N+](=O)[O-])cc1 [Compound No. 161, Nα-isobutyl-Nα-(4-nitrobenzenesulfonyl)-Nε-(trans-2-methoxycinnamoyl)-L-lysine] | > 300 nM
COc1cccc(C=CC(=O)NCCCC[C@@H](C(=O)O)N(CC(C)C)S(=O)(=O)c2ccc([N+](=O)[O-])cc2)c1 [Compound No. 162, Nα-isobutyl-Nα-(4-nitrobenzenesulfonyl)-Nε-(3-methoxycinnamoyl)-L-lysine] | > 300 nM
CC(C)CN([C@@H](CCCCNC(=O)C=Cc1ccc2c(c1)OCO2)C(=O)O)S(=O)(=O)c1ccc([N+](=O)[O-])cc1 [Compound No. 163, Nα-isobutyl-Nα-(4-nitrobenzenesulfonyl)-Nε-(3,4-methylenedioxycinnamoyl)-L-lysine] | > 300 nM
CC(C)CN([C@@H](CCCCNC(=O)/C=C/c1cccnc1)C(=O)O)S(=O)(=O)c1ccc([N+](=O)[O-])cc1 [Compound No. 164, Nα-isobutyl-Nα-(4-nitrobenzenesulfonyl)-Nε-(trans-3-(3-pyridyl)acryloyl)-L-lysine] | > 300 nM
Cc1ccc(S(=O)(=O)N(CC(C)C)C(CCCCNC(=O)C2c3ccccc3-c3ccccc32)C(=O)O)cc1 (stereo not shown) [compound 83] | 105 nM
Cc1ccc(S(=O)(=O)N(CC(C)C)[C@@H](CCCCNC(=O)CC2c3ccccc3-c3ccccc32)C(=O)O)cc1 [compound 84] | 89.7 nM
Cc1ccc(S(=O)(=O)N(CC(C)C)[C@@H](CCCCNC(=O)C2c3ccccc3Oc3ccccc32)C(=O)O)cc1 [compound 85] | 14.5 nM
Cc1ccc(S(=O)(=O)N(CC(C)C)[C@@H](CCCCNC(=O)C(c2ccccc2)c2ccccc2)C(=O)O)cc1 [compound 86] | 171 nM
Cc1ccc(S(=O)(=O)N(CC(C)C)[C@@H](CCCCNC(=O)c2c[nH]c3ccccc23)C(=O)O)cc1 [compound 87] | > 1250 nM
Cc1ccc(S(=O)(=O)N(CC(C)C)[C@@H](CCCCNC(=O)c2cc3ccccc3[nH]2)C(=O)O)cc1 [compound 88] | > 625 nM
Cc1ccc(S(=O)(=O)N(CC(C)C)[C@@H](CCCCNC(=O)CCc2c[nH]c3ccccc23)C(=O)O)cc1 [compound 89] | 6.9 nM
Cc1ccc(S(=O)(=O)N(CC(C)C)C(CCCCNC(=O)C=Cc2ccccc2)C(=O)O)cc1 (stereo not shown) [compound 90] | 747 nM
